From paper PMC10053286, “The Importance of Epigallocatechin as a Scaffold for Drug Development against Flaviviruses” (Pharmaceutics, 2023)
Read-outs that look alike come from different tables or passages of the source.

What was measured:
[1] = biological target: T1, DENV2 NS2B/NS3pro (Dengue virus type 2, UniProt P14340); type: binding
[2] = biological target: T2, YFV NS2B/NS3pro (Yellow fever virus, UniProt Q1X881); type: binding
[3] = biological target: T2, YFV NS2B/NS3pro; experiment: biochemical; type: binding
[4] = biological target: T3, WNV NS2B/NS3pro (West Nile virus, UniProt P06935); experiment: biochemical; type: biochemical
T3 sequence (P06935 1420-1465): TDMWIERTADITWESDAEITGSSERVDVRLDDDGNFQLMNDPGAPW
T3 sequence (P06935 1502-1671): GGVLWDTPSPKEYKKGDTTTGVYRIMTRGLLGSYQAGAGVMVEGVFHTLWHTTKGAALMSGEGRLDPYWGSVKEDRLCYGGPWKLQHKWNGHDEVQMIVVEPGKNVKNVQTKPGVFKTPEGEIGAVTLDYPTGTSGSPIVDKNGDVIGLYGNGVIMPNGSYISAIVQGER

[5] = biological target: T4, ZIKV NS2B/NS3pro (Zika virus, UniProt A0A024B7W1); experiment: biochemical
T4 sequence (A0A024B7W1 1421-1467): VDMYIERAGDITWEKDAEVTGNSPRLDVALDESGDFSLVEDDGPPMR
T4 sequence (A0A024B7W1 1503-1672): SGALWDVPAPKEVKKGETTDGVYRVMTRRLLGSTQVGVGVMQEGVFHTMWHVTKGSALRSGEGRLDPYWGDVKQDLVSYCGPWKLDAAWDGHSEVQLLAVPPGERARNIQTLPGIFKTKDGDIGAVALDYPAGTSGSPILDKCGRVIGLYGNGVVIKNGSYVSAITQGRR

[6] = biological target: T4, ZIKV NS2B/NS3pro; experiment: Surface plasmon resonance dissociation constant; type: binding
[7] = biological target: T1, DENV2 NS2B/NS3pro; experiment: biochemical
[8] = biological target: T1, DENV2 NS2B/NS3pro; experiment: Surface plasmon resonance dissociation constant; type: binding
[9] = biological target: T4, ZIKV NS2B/NS3pro; type: binding
[10] = biological target: T2, YFV NS2B/NS3pro; experiment: biochemical
[11] = biological target: T3, WNV NS2B/NS3pro; experiment: Surface plasmon resonance dissociation constant; type: binding
[12] = biological target: T4, ZIKV NS2B/NS3pro; details: Li and collaborators; cited from earlier work

T2 sequence (Q1X881 1402-1449 limits assumed): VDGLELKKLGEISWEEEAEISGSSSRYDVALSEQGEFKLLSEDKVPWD
T2 sequence (Q1X881 1491-1660 limits assumed): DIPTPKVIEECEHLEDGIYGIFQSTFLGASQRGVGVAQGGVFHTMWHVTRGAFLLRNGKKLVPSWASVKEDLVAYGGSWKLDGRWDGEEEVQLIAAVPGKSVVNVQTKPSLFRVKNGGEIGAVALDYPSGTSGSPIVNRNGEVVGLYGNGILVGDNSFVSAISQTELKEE
T1 sequence (P14340 1394-1440 limits assumed): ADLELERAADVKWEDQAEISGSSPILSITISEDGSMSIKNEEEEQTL
T1 sequence (P14340 1476-1660 limits assumed): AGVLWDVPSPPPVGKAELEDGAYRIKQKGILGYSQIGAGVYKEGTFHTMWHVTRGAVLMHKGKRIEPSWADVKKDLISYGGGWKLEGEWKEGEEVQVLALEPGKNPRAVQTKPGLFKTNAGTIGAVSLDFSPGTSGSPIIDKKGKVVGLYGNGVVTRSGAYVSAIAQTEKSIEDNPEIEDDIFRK

Question: For `Oc1cc(O)c2c(c1)O[C@H](c1cc(O)c(O)c(O)c1)[C@H](O)C2` [EGC, epigallocatechin], which “Trp emission band after titration of the molecule (excitation shift)” value (“Trp emission band … (excitation shift)” for short) [1] is on record?
Answer: The value was “no excitation shift”.

Question: What about the “Trp emission band … (excitation shift)” value [2] of the same compound?
Answer: The value was “no excitation shift”.

Question: What about the Kd [3] of the same compound?
Answer: The Kd was 0.27 µM.

Question: What about the IC50 [4] of the same compound?
Answer: Its IC50 is 17.3 ± 2.5 µM.

Question: And the “Inhibition Mode” value [4]?
Answer: Its value is “Competitive”.

Question: And the IC50 [5]?
Answer: Its IC50 is 8.9 ± 1.2 µM.

Question: What about the “Inhibition Mode” value [5] of the same compound?
Answer: The value was “Competitive”.

Question: And the Kd [6]?
Answer: Its Kd is 0.02 µM.

Question: What about the IC50 [7] of the same compound?
Answer: The IC50 was 145 ± 3 µM.

Question: What about the “Inhibition Mode” value [7] of the same compound?
Answer: The value was “Competitive”.

Question: What about the Kd [8] of the same compound?
Answer: Its Kd is 0.03 µM.

Question: What about the “Trp emission band … (excitation shift)” value [9] of the same compound?
Answer: The value was “no excitation shift”.

Question: What about the IC50 [10] of the same compound?
Answer: The IC50 was 19 ± 1.9 µM.

Question: What about the “Inhibition Mode” value [10] of the same compound?
Answer: Its value is “Competitive”.

Question: What about the Kd [11] of the same compound?
Answer: The Kd was 0.22 µM.

Question: Which IC50 [12] does the source give for `O=C(O[C@@H]1Cc2c(O)cc(O)cc2O[C@@H]1c1ccc(O)c(O)c1)c1cc(O)c(O)c(O)c1` [ECG, epicatechin gallate] here?
Answer: Its IC50 is 89 µM.

Question: What does the source list for `CC(=O)Oc1cc(OC(C)=O)c2c(c1)O[C@H](c1cc(OC(C)=O)c(OC(C)=O)c(OC(C)=O)c1)[C@H](OC(=O)c1cc(OC(C)=O)c(OC(C)=O)c(OC(C)=O)c1)C2` [AcEGCG, EGCG octaacetate]?
Answer: Trp emission band after titration of the molecule (excitation shift) [1]: 360 nm; Trp emission band after titration of the molecule (excitation shift) [2]: 360 nm; Kd [3]: 0.47 µM; IC50 [4]: 83.4 ± 10.4 µM; Inhibition Mode [4]: Noncompetitive; IC50 [5]: 102 ± 2.6 µM; Inhibition Mode [5]: Noncompetitive; Kd [6]: 4.8 µM; IC50 [7]: 39.8 ± 2.5 µM; Inhibition Mode [7]: Noncompetitive; Kd [8]: 2.4 µM; Trp emission band after titration of the molecule (excitation shift) [9]: 360 nm; IC50 [10]: 39.1 ± 2.2 µM; Inhibition Mode [10]: Noncompetitive; Kd [11]: 0.98 µM

Question: With `O=C(O[C@@H]1Cc2c(O)cc(O)cc2O[C@@H]1c1cc(O)c(O)c(O)c1)c1cc(O)c(O)c(O)c1` [EGCG, Epigallocatechin gallate] as the compound, how does the Kd [3] read?
Answer: Its Kd is 0.06 µM.

Question: What about the “Inhibition Mode” value [4] of the same compound?
Answer: The value was “Noncompetitive”.

Question: What about the IC50 [5] of the same compound?
Answer: The IC50 was 4.5 ± 0.6 µM.

Question: What about the “Inhibition Mode” value [5] of the same compound?
Answer: The value was “Noncompetitive”.

Question: What about the Kd [6] of the same compound?
Answer: The Kd was 0.09 µM.

Question: What about the IC50 [7] of the same compound?
Answer: Its IC50 is 6.3 ± 1 µM.

Question: And the “Inhibition Mode” value [7]?
Answer: Its value is “Noncompetitive”.

Question: What about the Kd [8] of the same compound?
Answer: Its Kd is 0.07 µM.

Question: And the IC50 [10]?
Answer: Its IC50 is 8 ± 1.4 µM.

Question: And the “Inhibition Mode” value [10]?
Answer: The value was “Noncompetitive”.
